According to patent publication US8952024B2, “Herbicidal pyrimidone derivatives” (E I du Pont de Nemours and Company, priority 2009, dated 2015):

What was measured:
Type in all cases: in vivo
corn (Zea mays) = test: Test B pre-/postemergence plant response
Method in brief: (§1)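 Pre-em in loam/sand; post-em at 1–4 leaf (2–18 cm) in peat mix. Solvent + surfactant formulation. Greenhouse 13–15 d; visual % control vs untreated, 0–100.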

[1] = test system: pigweed (Amaranthus retroflexus); test: Test B pre-/postemergence plant response
Method in brief: as §1

[2] = test system: Italian ryegrass (Lolium multiflorum); test: Test B pre-/postemergence plant response
Method in brief: as §1

soybean (Glycine max) = test: Test B pre-/postemergence plant response
Method in brief: as §1

[3] = test system: wheat (Triticum aestivum); test: Test B pre-/postemergence plant response
Method in brief: as §1

[4] = test system: velvetleaf (Abutilon theophrasti); test: Test B pre-/postemergence plant response
Method in brief: as §1

[5] = test system: morningglory (Ipomoea coccinea); test: Test B pre-/postemergence plant response
Method in brief: as §1

[6] = test system: downy bromegrass (Bromus tectorum); test: Test B pre-/postemergence plant response
Method in brief: as §1

[7] = test system: green foxtail (Setaria viridis); test: Test B pre-/postemergence plant response
Method in brief: as §1

[8] = test system: johnsongrass (Sorghum halepense); test: Test B pre-/postemergence plant response
Method in brief: as §1

[9] = test system: giant foxtail (Setaria faberii); test: Test B pre-/postemergence plant response
Method in brief: as §1

[10] = test system: goosegrass (Eleusine indica); test: Test B pre-/postemergence plant response
Method in brief: as §1

[11] = test system: ragweed (common ragweed, Ambrosia elatior); test: Test B pre-/postemergence plant response
Method in brief: as §1

[12] = test system: blackgrass (Alopecurus myosuroides); test: Test B pre-/postemergence plant response
Method in brief: as §1

[13] = test system: bermudagrass (Cynodon dactylon); test: Test B pre-/postemergence plant response
Method in brief: as §1

[14] = test system: winter barley (Hordeum vulgare); test: Test B postemergence plant response; settings: Postemergence
Method in brief: (§2)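 Visual ratings from 0 (no effect) to 100 (complete control), made against controls 13–15 days after treatment, kept in a greenhouse. Compounds were applied postemergence to potted plants at the 1- to 4-leaf stage (2–18 cm).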

[15] = test system: canarygrass (Phalaris minor); test: Test B postemergence plant response; settings: Postemergence
Method in brief: as §2

[16] = test system: chickweed (Stellaria media); test: Test B postemergence plant response; settings: Postemergence
Method in brief: as §2

[17] = 250 g ai/ha, Preemergence, 0 to 100 scale
[18] = Postemergence, 31 g ai/ha, scale 0 to 100 (0 no effect, 100 complete control)
[19] = Postemergence, 62 g ai/ha, scale 0 (no effect) to 100 (complete control), 13 to 15 days
[20] = Postemergence, 125 g ai/ha, visual rating after 13 to 15 days, scale 0 (no effect) to 100 (complete control)
[21] = Postemergence, 250 g ai/ha, scale 0 to 100
[22] = Preemergence, 31 g ai/ha, scale 0 to 100 (0 no effect, 100 complete control)
[23] = Preemergence, 62 g ai/ha, scale 0 to 100, 0 no effect, 100 complete control
[24] = Preemergence, 125 g ai/ha, 0 to 100 scale
[25] = 31 g ai/ha, scale 0 to 100 (0 no effect, 100 complete control)
[26] = 62 g ai/ha, scale 0 (no effect) to 100 (complete control), 13 to 15 days
[27] = 125 g ai/ha, visual rating after 13 to 15 days, scale 0 (no effect) to 100 (complete control)

## O=C1CCCC(O)=C1C(=O)c1cnc(-c2cccc(Cl)c2)n(-c2ccccc2)c1=O [Compound 34]
Corn (Zea mays); [17]
  Plant response rating, Corn: 0
Corn (Zea mays); [18]
  Plant response rating, Corn: 0
Corn (Zea mays); [19]
  Plant response rating, Corn: 0
Corn (Zea mays); [20]
  Plant response rating, Corn: 45
Corn (Zea mays); [21]
  Corn plant response rating: 50
Corn (Zea mays); [22]
  Plant response rating, Corn: 0
Corn (Zea mays); [23]
  Plant response rating, Corn: 0
Corn (Zea mays); [24]
  Corn plant response rating: 0
[1]; [17]
  Plant response rating, Pigweed: 100
[1]; [19]
  Plant response rating, Pigweed: 90
[1]; [20]
  Plant response rating, Pigweed: 98
[1]; [22]
  Plant response rating, Pigweed: 100
[1]; [23]
  Plant response rating, Pigweed: 100
[1]; [24]
  Pigweed plant response rating: 100
[2]; [17]
  Plant response rating, Ryegrass, Italian: 10
[2]; [19]
  Plant response rating, Ryegrass, Italian: 10
[2]; [20]
  Plant response rating, Ryegrass, Italian: 20
[2]; [22]
  Plant response rating, Ryegrass, Italian: 0
[2]; [23]
  Plant response rating, Ryegrass, Italian: 0
[2]; [24]
  Ryegrass, Italian plant response rating: 5
Soybean (Glycine max); [17]
  Plant response rating, Soybean: 80
Soybean (Glycine max); [19]
  Plant response rating, Soybean: 95
Soybean (Glycine max); [20]
  Plant response rating, Soybean: 95
Soybean (Glycine max); [22]
  Plant response rating, Soybean: 0
Soybean (Glycine max); [23]
  Plant response rating, Soybean: 45
Soybean (Glycine max); [24]
  Soybean plant response rating: 65
[3]; [17]
  Plant response rating, Wheat: 0
[3]; [19]
  Plant response rating, Wheat: 10
[3]; [20]
  Plant response rating, Wheat: 35
[3]; [23]
  Plant response rating, Wheat: 0
[3]; [24]
  Wheat plant response rating: 0
[4]; [17]
  Plant response rating, Velvetleaf: 100
[4]; [19]
  Plant response rating, Velvetleaf: 95
[4]; [20]
  Plant response rating, Velvetleaf: 98
[4]; [22]
  Plant response rating, Velvetleaf: 75
[4]; [23]
  Plant response rating, Velvetleaf: 85
[4]; [24]
  Velvetleaf plant response rating: 95
[5]; [17]
  Plant response rating, Morningglory: 98
[5]; [19]
  Plant response rating, Morningglory: 80
[5]; [20]
  Plant response rating, Morningglory: 85
[5]; [22]
  Plant response rating, Morningglory: 0
[5]; [23]
  Plant response rating, Morningglory: 0
[5]; [24]
  Morningglory plant response rating: 75
[6]; [17]
  Plant response rating, Bromegrass, Downy: 80
[6]; [18]
  Plant response rating, Bromegrass, Downy: 40
[6]; [19]
  Plant response rating, Bromegrass, Downy: 50
[6]; [20]
  Plant response rating, Bromegrass, Downy: 50
[6]; [21]
  Bromegrass, Downy plant response rating: 50
[6]; [23]
  Plant response rating, Bromegrass, Downy: 0
[6]; [24]
  Bromegrass, Downy plant response rating: 10
[7]; [17]
  Plant response rating, Foxtail, Green: 100
[7]; [18]
  Plant response rating, Foxtail, Green: 70
[7]; [19]
  Plant response rating, Foxtail, Green: 90
[7]; [20]
  Plant response rating, Foxtail, Green: 90
[7]; [21]
  Foxtail, Green plant response rating: 95
[7]; [22]
  Plant response rating, Foxtail, Green: 50
[7]; [23]
  Plant response rating, Foxtail, Green: 70
[7]; [24]
  Foxtail, Green plant response rating: 90
[8]; [17]
  Plant response rating, Johnsongrass: 100
[8]; [19]
  Plant response rating, Johnsongrass: 90
[8]; [20]
  Plant response rating, Johnsongrass: 95
[8]; [21]
  Johnsongrass plant response rating: 100
[8]; [22]
  Plant response rating, Johnsongrass: 20
[8]; [23]
  Plant response rating, Johnsongrass: 75
[8]; [24]
  Johnsongrass plant response rating: 98
[9]; [17]
  Plant response rating, Foxtail, Giant: 100
[9]; [18]
  Plant response rating, Foxtail, Giant: 85
[9]; [19]
  Plant response rating, Foxtail, Giant: 90
[9]; [20]
  Plant response rating, Foxtail, Giant: 95
[9]; [21]
  Foxtail, Giant plant response rating: 95
[9]; [22]
  Plant response rating, Foxtail, Giant: 15
[9]; [23]
  Plant response rating, Foxtail, Giant: 55
[9]; [24]
  Foxtail, Giant plant response rating: 90
[10]; [17]
  Plant response rating, Goosegrass: 100
[10]; [19]
  Plant response rating, Goosegrass: 80
[10]; [20]
  Plant response rating, Goosegrass: 90
[10]; [21]
  Goosegrass plant response rating: 95
[10]; [22]
  Plant response rating, Goosegrass: 95
[10]; [24]
  Goosegrass plant response rating: 100
[11]; [17]
  Plant response rating, Ragweed: 90
[11]; [19]
  Plant response rating, Ragweed: 85
[11]; [20]
  Plant response rating, Ragweed: 95
[11]; [22]
  Plant response rating, Ragweed: 75
[11]; [23]
  Plant response rating, Ragweed: 80
[11]; [24]
  Ragweed plant response rating: 90
[12]; [17]
  Plant response rating, Blackgrass: 50
[12]; [18]
  Plant response rating, Blackgrass: 0
[12]; [19]
  Plant response rating, Blackgrass: 5
[12]; [20]
  Plant response rating, Blackgrass: 10
[12]; [21]
  Blackgrass plant response rating: 40
[12]; [22]
  Plant response rating, Blackgrass: 0
[12]; [23]
  Plant response rating, Blackgrass: 5
[12]; [24]
  Blackgrass plant response rating: 50
[13]; [17]
  Plant response rating, Bermudagrass: 100
[13]; [18]
  Plant response rating, Bermudagrass: 75
[13]; [19]
  Plant response rating, Bermudagrass: 95
[13]; [20]
  Plant response rating, Bermudagrass: 95
[13]; [21]
  Bermudagrass plant response rating: 98
[13]; [22]
  Plant response rating, Bermudagrass: 100
[13]; [23]
  Plant response rating, Bermudagrass: 100
[13]; [24]
  Bermudagrass plant response rating: 100
[14]; [25]
  Plant response rating, Barley: 0
[14]; [26]
  Plant response rating, Barley: 30
[14]; [27]
  Plant response rating, Barley: 30
[14]; 250 g ai/ha, scale 0 to 100
  Barley plant response rating: 30
[15]; [25]
  Plant response rating, Canarygrass: 5
[15]; [26]
  Plant response rating, Canarygrass: 50
[15]; [27]
  Plant response rating, Canarygrass: 50
[15]; 250 g ai/ha, scale 0 to 100
  Canarygrass plant response rating: 50
[16]; [25]
  Plant response rating, Chickweed: 50
[16]; [26]
  Plant response rating, Chickweed: 75
[16]; [27]
  Plant response rating, Chickweed: 98
[16]; 250 g ai/ha, scale 0 to 100
  Chickweed plant response rating: 100
